These results are taken from patent publication US20250136559A1, “SMO MODULATOR COMPOUNDS” (OMASS THERAPEUTICS LIMITED, priority 2022, published 2025).

Common to all, as to type: cell-based
The target of one experiment is T1, mouse SMO^WT (Mus musculus, UniProt P56726).
T1 construct: expressed in transfected cells
Briefly: Mouse assay: Gli1 qPCR in MEF cells stably expressing mouse SMO WT. Conditions: mSHh-treated, 24 hours; for IC50: Gli1 inhibition by qPCR, read-out: Mouse WT pIC50 (converted); for Mouse WT % Inh: percentage Gli1 inhibition. The method in brief: (§1)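 MEFs stably expressing the SMO variant pre-treated with compound 1 h, then stimulated with mSHh and incubated 24 h at 37 °C. Gli1 mRNA quantified by one-step TaqMan qPCR with Gusb reference, four replicates per concentration; expressed as % Gli1 inhibition relative to mSHh-treated controls.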
Background: In qPCR the cycle at which signal appears reflects the starting amount.

Another experiment addresses T2, mouse SMO^W535L (Mus musculus, UniProt P56726, W539L).
T2 construct: expressed in transfected cells
In words: Mouse assay: Gli1 qPCR in MEF cells stably expressing mouse SMO W535L. Conditions: mSHh-treated, 24 hours; for IC50: Gli1 inhibition by qPCR, read-out: Mouse W535L pIC50 (converted); for Mouse W535L % Inh: percentage Gli1 inhibition. The method, boiled down:
as §1

For a further experiment, the target named is T3, mouse SMO^D473H (Mus musculus, UniProt P56726, D477H).
T3 construct: expressed in transfected cells
T3 sequence (P56726 33-793 D477H): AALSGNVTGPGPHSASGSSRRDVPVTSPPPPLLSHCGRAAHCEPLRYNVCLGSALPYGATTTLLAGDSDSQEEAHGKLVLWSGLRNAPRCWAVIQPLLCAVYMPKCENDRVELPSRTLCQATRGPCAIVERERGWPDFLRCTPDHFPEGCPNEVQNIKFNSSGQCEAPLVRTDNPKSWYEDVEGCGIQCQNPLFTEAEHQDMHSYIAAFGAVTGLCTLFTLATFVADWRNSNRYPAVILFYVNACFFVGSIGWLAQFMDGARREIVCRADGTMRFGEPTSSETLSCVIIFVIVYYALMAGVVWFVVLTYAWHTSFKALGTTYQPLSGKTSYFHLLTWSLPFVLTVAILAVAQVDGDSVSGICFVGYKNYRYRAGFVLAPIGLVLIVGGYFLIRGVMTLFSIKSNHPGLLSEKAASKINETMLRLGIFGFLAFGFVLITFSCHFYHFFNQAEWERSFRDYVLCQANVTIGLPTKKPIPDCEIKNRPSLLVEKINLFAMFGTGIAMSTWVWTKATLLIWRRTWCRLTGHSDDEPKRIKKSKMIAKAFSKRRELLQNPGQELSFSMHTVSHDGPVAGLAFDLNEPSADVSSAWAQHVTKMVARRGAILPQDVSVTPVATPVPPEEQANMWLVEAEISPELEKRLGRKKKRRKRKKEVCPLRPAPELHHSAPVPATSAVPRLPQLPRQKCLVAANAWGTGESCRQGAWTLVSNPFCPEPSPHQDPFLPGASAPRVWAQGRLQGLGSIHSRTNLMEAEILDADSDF
In words: Mouse assay: Gli1 qPCR in MEF cells stably expressing mouse SMO D473H. Conditions: mSHh-treated, 24 hours; for IC50: Gli1 inhibition by qPCR, read-out: Mouse D473H pIC50 (converted); for Mouse D473H % Inh: percentage Gli1 inhibition. The method, boiled down:
as §1

SMILES strings stand for the structures.

T1 sequence (P56726 33-793): as the sequence (P56726 33-793 D477H) above, with H445D counted along it
T2 sequence (P56726 33-793 W539L): as the sequence (P56726 33-793 D477H) above, with H445D, W507L counted along it

As to `O=C(Nc1ccc(-c2noc(Cc3ccccc3)n2)cc1)c1cccc(CN2CCS(=O)(=O)CC2)c1` [Example 4-15, N-[4-(5-Benzyl-1,2,4-oxadiazol-3-yl)phenyl]-3-[(1,1-dioxo-1,4-thiazinan-4-yl)methyl]benzamide], on mouse SMO^WT, the IC50 is 6.31 nM and the “Mouse WT % Inh” value is listed as 99.0%. At mouse SMO^W535L, the IC50 was 31.6 nM and the “Mouse W535L % Inh” value is 82.0%. Moreover, at mouse SMO^D473H, the IC50 was 31.6 nM and the “Mouse D473H % Inh” value amounted to 99.4%.

For the compound `Cc1ccc(Cc2nc(-c3ccc(NC(=O)c4cccc(CN5CCS(=O)(=O)CC5)c4)cc3)no2)cc1` [Example 4-16, 3-[(1,1-Dioxo-1,4-thiazinan-4-yl)methyl]-N-[4-[5-[(4-methylphenyl)methyl]-1,2,4-oxadiazol-3-yl]phenyl]benzamide], at mouse SMO^WT, the IC50 was 2 nM and the “Mouse WT % Inh” value worked out at 97.5%. In addition, on mouse SMO^W535L, the IC50 was 20 nM and the “Mouse W535L % Inh” value is on record as 72.5%. Moreover, at mouse SMO^D473H, the IC50 is 12.6 nM and the “Mouse D473H % Inh” value was determined as 98.8%.

For `O=C(Nc1ccc(-c2noc(Cc3ccc(Cl)cc3)n2)cc1)c1cccc(CN2CCS(=O)(=O)CC2)c1` [Example 4-18, N-[4-[5-[(4-Chlorophenyl)methyl]-1,2,4-oxadiazol-3-yl]phenyl]-3-[(1,1-dioxo-1,4-thiazinan-4-yl)methyl]benzamide], at mouse SMO^WT, the IC50 was 2.51 nM and the “Mouse WT % Inh” value is reported as 98.7%. Further, at mouse SMO^W535L, the IC50 is 39.8 nM and the “Mouse W535L % Inh” value is on record as 82.7%. Besides, at mouse SMO^D473H, the IC50 was 15.8 nM and the “Mouse D473H % Inh” value stood at 99.2%.

On to `O=C(Nc1ccc(-c2cc(C3CC3)n[nH]2)cc1)c1ccc(Cl)c(CN2CCS(=O)(=O)CC2)c1` [Example 4-20, 4-chloro-N-[4-(5-cyclopropyl-1H-pyrazol-3-yl)phenyl]-3-[(1,1-dioxo-1,4-thiazinan-4-yl)methyl]benzamide], for which, at mouse SMO^WT, the IC50 is 2.51 nM and the “Mouse WT % Inh” value is 99.1%. Also, on mouse SMO^W535L, the IC50 is 10 nM and the “Mouse W535L % Inh” value came to 51.6%. For the same compound, at mouse SMO^D473H, the IC50 was 31.6 nM and the “Mouse D473H % Inh” value came out at 98.4%.

In the case of `O=C(Nc1ccc(-c2cc(Cc3ccccc3)n[nH]2)cc1)c1cccc(CN2CCS(=O)(=O)CC2)c1` [Example 4-21, N-[4-(3-Benzyl-1H-pyrazol-5-yl)phenyl]-3-[(1,1-dioxo-1,4-thiazinan-4-yl)methyl]benzamide], on mouse SMO^WT, the IC50 was 6.31 nM and the “Mouse WT % Inh” value worked out at 99.3%. For the same compound, on mouse SMO^W535L, the IC50 was 39.8 nM and the “Mouse W535L % Inh” value was determined as 76.6%. For the same compound, at mouse SMO^D473H, the IC50 is 63.1 nM and the “Mouse D473H % Inh” value was 99.4%.

`Cn1nc(-c2ccc(NC(=O)c3ccc(Cl)c(CN4CCS(=O)(=O)CC4)c3)cc2)cc1C1CC1` [Example 4-24, 4-Chloro-N-[4-(5-cyclopropyl-1-methylpyrazol-3-yl)phenyl]-3-[(1,1-dioxo-1,4-thiazinan-4-yl)methyl]benzamide]: at mouse SMO^WT, the IC50 was 0.631 nM and the “Mouse WT % Inh” value came to 97.9%. Moreover, at mouse SMO^W535L, the IC50 is 10 nM and the “Mouse W535L % Inh” value came to 70.0%. On mouse SMO^D473H, the IC50 is 7.94 nM and the “Mouse D473H % Inh” value amounted to 98.1%.

As to `Cc1c(-c2ccc(NC(=O)c3cccc(CN4CCS(=O)(=O)CC4)c3)cc2)nn(C)c1C1CC1` [Example 4-25, N-[4-(5-Cyclopropyl-1,4-dimethylpyrazol-3-yl)phenyl]-3-[(1,1-dioxo-1,4-thiazinan-4-yl)methyl]benzamide], at mouse SMO^WT, the IC50 was 0.398 nM and the “Mouse WT % Inh” value is recorded as 98.3%. At mouse SMO^W535L, the IC50 is 15.8 nM and the “Mouse W535L % Inh” value came to 65.7%. In addition, at mouse SMO^D473H, the IC50 was 5.01 nM and the “Mouse D473H % Inh” value came to 98.6%.

As to `Cl.Cn1nc(-c2ccc(NC(=O)c3cccc(CN4CCS(=O)(=O)CC4)c3)cc2)nc1C1CC1` [Example 4-27, N-[4-(5-cyclopropyl-1-methyl-1,2,4-triazol-3-yl)phenyl]-3-[(1,1-dioxo-1,4-thiazinan-4-yl)methyl]benzamide], on mouse SMO^WT, the IC50 is 6.31 nM and the “Mouse WT % Inh” value worked out at 99.5%. Moreover, at mouse SMO^W535L, the IC50 is 158 nM and the “Mouse W535L % Inh” value was 77.7%. Further, at mouse SMO^D473H, the IC50 was 50.1 nM and the “Mouse D473H % Inh” value worked out at 98.5%.

With `Cc1oc(-c2ccc(NC(=O)c3ccc(Cl)c(CN4CCS(=O)(=O)CC4)c3)cn2)nc1C1CC1` [Example 5-2, 4-Chloro-N-[6-(4-cyclopropyl-5-methyl-1,3-oxazol-2-yl)pyridin-3-yl]-3-[(1,1-dioxo-1,4-thiazinan-4-yl)methyl]benzamide], on mouse SMO^WT, the IC50 is 2 nM and the “Mouse WT % Inh” value was 98.8%. Further, at mouse SMO^W535L, the IC50 is 63.1 nM and the “Mouse W535L % Inh” value came out at 82.7%. In addition, at mouse SMO^D473H, the IC50 is 7.94 nM and the “Mouse D473H % Inh” value stood at 98.1%.

`Cn1nc(-c2ccc(NC(=O)c3cccc(CN4CCS(=O)(=O)CC4)c3)nc2)cc1C1CC1` [Example 5-5, N-[5-(5-cyclopropyl-1-methylpyrazol-3-yl)pyridin-2-yl]-3-[(1,1-dioxo-1,4-thiazinan-4-yl)methyl]benzamide]: on mouse SMO^WT, the IC50 was 31.6 nM and the “Mouse WT % Inh” value is 97.7%. In addition, at mouse SMO^W535L, the IC50 is 631 nM and the “Mouse W535L % Inh” value came to 61.1%. Further, at mouse SMO^D473H, the IC50 was 100 nM and the “Mouse D473H % Inh” value is listed as 93.2%.
